# Source: PubChem BioAssay AID1963427 (Molecular Pharmacology Branch, DTP, NCI, 2024)
# Tested on: 317291-083-R-J1-PDC complex spheroid growth
# Assay: Anticancer human tumor 317291-083-R-J1-PDC patient-derived soft tissue sarcoma cell line growth inhibition [Asc]
# Settings: for IC50: curve of first compound; for viability, T/C: stronger effect = lower value
# Method in brief: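 Concentration series start at each agent's clinical Cmax, or at 10 microM when none is established, and drop in half-log steps; agents are applied alone or together to complex spheroids built with HUVEC and hMSC.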
# [1] = second compound 0.0316 µM, first compound 0.0316 µM
# [2] = second compound 0.0316 µM, first compound 0.1 µM
# [3] = second compound 0.0316 µM, first compound 0.316 µM
# [4] = second compound 0.0316 µM, first compound 1 µM
# [5] = second compound 0.1 µM, first compound 0.0316 µM
# [6] = second compound 0.1 µM, first compound 0.1 µM
# [7] = second compound 0.1 µM, first compound 0.316 µM
# [8] = second compound 0.1 µM, first compound 1 µM
# [9] = second compound 0.316 µM, first compound 0.0316 µM
# [10] = second compound 0.316 µM, first compound 0.1 µM
# [11] = second compound 0.316 µM, first compound 0.316 µM
# [12] = second compound 0.316 µM, first compound 1 µM
# [13] = second compound 1 µM, first compound 0.0316 µM
# [14] = second compound 1 µM, first compound 0.1 µM
# [15] = second compound 1 µM, first compound 0.316 µM
# [16] = second compound 1 µM, first compound 1 µM
# [17] = second compound 3.16 µM, first compound 0.0316 µM
# [18] = second compound 3.16 µM, first compound 0.1 µM
# [19] = second compound 3.16 µM, first compound 0.316 µM
# [20] = second compound 3.16 µM, first compound 1 µM
# [21] = second compound 10 µM, first compound 0.0316 µM
# [22] = second compound 10 µM, first compound 0.1 µM
# [23] = second compound 10 µM, first compound 0.316 µM
# [24] = second compound 10 µM, first compound 1 µM
# [25] = second compound 0.0316 µM, first compound 0.00316 µM
# [26] = second compound 0.0316 µM, first compound 0.01 µM
# [27] = second compound 0.1 µM, first compound 0.00316 µM
# [28] = second compound 0.1 µM, first compound 0.01 µM
# [29] = second compound 0.316 µM, first compound 0.00316 µM
# [30] = second compound 0.316 µM, first compound 0.01 µM
# [31] = second compound 1 µM, first compound 0.00316 µM
# [32] = second compound 1 µM, first compound 0.01 µM
# [33] = second compound 3.16 µM, first compound 0.00316 µM
# [34] = second compound 3.16 µM, first compound 0.01 µM
# [35] = second compound 10 µM, first compound 0.00316 µM
# [36] = second compound 10 µM, first compound 0.01 µM
# 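Also: compound exposure lasted seven days after spheroids formed for three days.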
# 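For viability, T/C in this document: 100% = DMSO vehicle control wells.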
smiles,measurement,setting,value
C=CC(=O)N1CCN(c2nc(=O)n(-c3c(C)ccnc3C(C)C)c3nc(-c4c(O)cccc4F)c(F)cc23)C(C)C1 (stereo unspecified) + Cc1c(S(C)(=O)=O)c(-c2cc(F)cc(N3CCN(c4ccc(NS(=O)(=O)c5ccc(NC(CCN6CCC(C(=O)OCCCP(=O)(O)O)CC6)CSc6ccccc6)c(S(=O)(=O)C(F)(F)F)c5)cc4)CC3)c2)c(-c2ccc(Cl)cc2)n1C(C)C,IC50,second compound 0.0316 µM,> 10000 nM
same,IC50,second compound 0.1 µM,> 10000 nM
same,IC50,second compound 0.316 µM,> 10000 nM
same,IC50,second compound 1 µM,> 10000 nM
same,IC50,second compound 3.16 µM,8050 nM
same,IC50,second compound 10 µM,9460 nM
same,"viability, T/C",[1],108%
same,"viability, T/C",[2],86.8%
same,"viability, T/C",[3],108%
same,"viability, T/C",[4],98.3%
same,"viability, T/C","second compound 0.0316 µM, first compound 3.16 µM",98.3%
same,"viability, T/C","second compound 0.0316 µM, first compound 10 µM",66.1%
same,"viability, T/C",[5],84.4%
same,"viability, T/C",[6],97.7%
same,"viability, T/C",[7],86.1%
same,"viability, T/C",[8],86.5%
same,"viability, T/C","second compound 0.1 µM, first compound 3.16 µM",100%
same,"viability, T/C","second compound 0.1 µM, first compound 10 µM",60.1%
same,"viability, T/C",[9],91%
same,"viability, T/C",[10],102%
same,"viability, T/C",[11],85.3%
same,"viability, T/C",[12],90.6%
same,"viability, T/C","second compound 0.316 µM, first compound 3.16 µM",83.9%
same,"viability, T/C","second compound 0.316 µM, first compound 10 µM",59.7%
same,"viability, T/C",[13],81.5%
same,"viability, T/C",[14],84.3%
same,"viability, T/C",[15],96.2%
same,"viability, T/C",[16],80.2%
same,"viability, T/C","second compound 1 µM, first compound 3.16 µM",81.7%
same,"viability, T/C","second compound 1 µM, first compound 10 µM",51.7%
same,"viability, T/C",[17],82.4%
same,"viability, T/C",[18],70.7%
same,"viability, T/C",[19],87.8%
same,"viability, T/C",[20],74.7%
same,"viability, T/C","second compound 3.16 µM, first compound 3.16 µM",79.5%
same,"viability, T/C","second compound 3.16 µM, first compound 10 µM",43.2%
same,"viability, T/C",[21],87.1%
same,"viability, T/C",[22],90.6%
same,"viability, T/C",[23],93.2%
same,"viability, T/C",[24],88.6%
same,"viability, T/C","second compound 10 µM, first compound 3.16 µM",96.6%
same,"viability, T/C","second compound 10 µM, first compound 10 µM",47.9%
COc1c(OCCCN2CCOCC2)ccc2c3n(c(=NC(=O)c4cnc(N)nc4)nc12)CCN3 + Cc1c(S(C)(=O)=O)c(-c2cc(F)cc(N3CCN(c4ccc(NS(=O)(=O)c5ccc(NC(CCN6CCC(C(=O)OCCCP(=O)(O)O)CC6)CSc6ccccc6)c(S(=O)(=O)C(F)(F)F)c5)cc4)CC3)c2)c(-c2ccc(Cl)cc2)n1C(C)C,IC50,second compound 0.0316 µM,104 nM
same,IC50,second compound 0.1 µM,88 nM
same,IC50,second compound 0.316 µM,88.4 nM
same,IC50,second compound 1 µM,78 nM
same,IC50,second compound 3.16 µM,62.9 nM
same,IC50,second compound 10 µM,95.3 nM
same,"viability, T/C",[25],116%
same,"viability, T/C",[26],116%
same,"viability, T/C",[1],78%
same,"viability, T/C",[2],52.9%
same,"viability, T/C",[3],27%
same,"viability, T/C",[4],13%
same,"viability, T/C",[27],106%
same,"viability, T/C",[28],76.6%
same,"viability, T/C",[5],62.5%
same,"viability, T/C",[6],54.7%
same,"viability, T/C",[7],28.1%
same,"viability, T/C",[8],13.5%
same,"viability, T/C",[29],91.3%
same,"viability, T/C",[30],85.5%
same,"viability, T/C",[9],69.7%
same,"viability, T/C",[10],44.7%
same,"viability, T/C",[11],30.1%
same,"viability, T/C",[12],11.7%
same,"viability, T/C",[31],86.2%
same,"viability, T/C",[32],88%
same,"viability, T/C",[13],63.2%
same,"viability, T/C",[14],44.8%
same,"viability, T/C",[15],28.2%
same,"viability, T/C",[16],12.1%
same,"viability, T/C",[33],65.6%
same,"viability, T/C",[34],54.8%
same,"viability, T/C",[17],60.9%
same,"viability, T/C",[18],43.7%
same,"viability, T/C",[19],21.3%
same,"viability, T/C",[20],9.02%
same,"viability, T/C",[35],100%
same,"viability, T/C",[36],90.2%
same,"viability, T/C",[21],70.7%
same,"viability, T/C",[22],54.2%
same,"viability, T/C",[23],19.2%
same,"viability, T/C",[24],7.2%
NC1CCC(NC2CC2c2ccccc2)CC1 (stereo unspecified) + Cc1c(S(C)(=O)=O)c(-c2cc(F)cc(N3CCN(c4ccc(NS(=O)(=O)c5ccc(NC(CCN6CCC(C(=O)OCCCP(=O)(O)O)CC6)CSc6ccccc6)c(S(=O)(=O)C(F)(F)F)c5)cc4)CC3)c2)c(-c2ccc(Cl)cc2)n1C(C)C,IC50,second compound 0.0316 µM,> 100 nM
same,IC50,second compound 0.1 µM,> 100 nM
same,IC50,second compound 0.316 µM,> 100 nM
same,IC50,second compound 1 µM,> 100 nM
same,IC50,second compound 3.16 µM,> 100 nM
same,IC50,second compound 10 µM,> 100 nM
same,"viability, T/C","second compound 0.0316 µM, first compound 0.000316 µM",120%
same,"viability, T/C","second compound 0.0316 µM, first compound 0.001 µM",87.3%
same,"viability, T/C",[25],98.2%
same,"viability, T/C",[26],99%
same,"viability, T/C",[1],106%
same,"viability, T/C",[2],86.5%
same,"viability, T/C","second compound 0.1 µM, first compound 0.000316 µM",107%
same,"viability, T/C","second compound 0.1 µM, first compound 0.001 µM",78.9%
same,"viability, T/C",[27],90.2%
same,"viability, T/C",[28],76.9%
same,"viability, T/C",[5],77.6%
same,"viability, T/C",[6],83.9%
same,"viability, T/C","second compound 0.316 µM, first compound 0.000316 µM",93.9%
same,"viability, T/C","second compound 0.316 µM, first compound 0.001 µM",100%
same,"viability, T/C",[29],80.2%
same,"viability, T/C",[30],106%
same,"viability, T/C",[9],109%
same,"viability, T/C",[10],90.5%
same,"viability, T/C","second compound 1 µM, first compound 0.000316 µM",73.3%
same,"viability, T/C","second compound 1 µM, first compound 0.001 µM",75%
same,"viability, T/C",[31],93%
same,"viability, T/C",[32],74.3%
same,"viability, T/C",[13],107%
same,"viability, T/C",[14],74.1%
same,"viability, T/C","second compound 3.16 µM, first compound 0.000316 µM",72.7%
same,"viability, T/C","second compound 3.16 µM, first compound 0.001 µM",81.7%
same,"viability, T/C",[33],79%
same,"viability, T/C",[34],69.9%
same,"viability, T/C",[17],87.6%
same,"viability, T/C",[18],76%
same,"viability, T/C","second compound 10 µM, first compound 0.000316 µM",95.6%
same,"viability, T/C","second compound 10 µM, first compound 0.001 µM",91.9%
same,"viability, T/C",[35],97.8%
same,"viability, T/C",[36],87.8%
same,"viability, T/C",[21],94%
same,"viability, T/C",[22],73.7%
